{"source": "patent US20260242748A1", "about": "“FORMULATION FOR CELL CRYOPRESERVATION” (ENCELL CO., LTD, priority 2023, published 2026)", "key": {"WJ-MSCs [1]": {"test_system": "WJ-MSCs", "conditions": "glutathione at 100 μM (tested 0, 10, 50, 100 μM) after H2O2 0-100 μM; FIG. 2", "description": "In order to determine the optimal concentration of glutathione in the cryopreservation formulation, the WJ-MSCs were treated with hydrogen peroxide (H2O2) at concentrations of 0 μM, 10 μM, 50 μM, and 100 μM, to induce stress caused by reactive oxygen species, and then further treated with glutathione at concentrations of 0 μM, 10 μM, 50 μM, and 100 μM, and cell recovery was evaluated using a CCK-8 assay."}, "WJ-MSCs [2]": {"test_system": "WJ-MSCs", "conditions": "FIG. 1", "method": "Specifically, the umbilical cord was cut into 3-4 cm lengths, the tissue was finely chopped and treated with collagenase solution (Gibco, USA) for 60 to 90 minutes to degrade the extracellular matrix, and 0.25% trypsin (Gibco, USA) was added to further induce digestion for 30 minutes at 37° C. Then, fetal bovine serum (FBS; Biowest, USA) was added and cells were obtained by centrifugation at 1,000 g for 10 minutes, and then were cultured in a 5% CO2 environment at 37° C. using MEM Alpha (Minimum Essential Medium, Invitrogen-Gibco, Rockville, MD) medium containing 10% FBS (fetal bovine serum, Invitrogen-Gibco) and 50 μg/mL gentamicin (Invitrogen-Gibco) to obtain human umbilical cord-derived mesenchymal stem cells (WJ-MSCs), which were then used in the experiment. […] The WJ-MSCs were seeded at 1×10^4 cells in a 96-well plate and cultured for 24 hours."}}, "data": [{"smiles": "N[C@@H](CCC(=O)N[C@@H](CS)C(=O)NCC(=O)O)C(=O)O", "note": "[glutathione]", "values": [{"measurement": "cell viability (cell recovery)", "setting": "WJ-MSCs [1]", "result": "highest"}, {"measurement": "cell viability", "setting": "WJ-MSCs [2]; 1×10^4 cells in 96-well plate, cultured 24 hours, compared with acetadote, fursultiamine hydrochloride, vitamin C", "result": "highest"}, {"measurement": "cell proliferation", "setting": "WJ-MSCs [2]; CCK-8 assay", "result": "further increased"}]}]}
